Results published in patent US20250057785A1, “APPLICATION OF 10'(Z), 13'(E), 15'(E)-HEPTADECATRIENYL HYDROQUINONE (HQ17(3)) IN TREATING CORONAVIRUS INFECTION” (National Atomic Research Institute, priority 2023, published 2025).

Experiments:
[1] = intraperitoneal injection of 1 mg/kg daily for 28 days, F344 rats; cited from earlier work
blood cancer HL-60 cells = details: 5 uM, cultured for 48 hours; cited from earlier work
[2] = system: peripheral white blood cells; details: cited from earlier work
[3] = system: novel coronavirus (SARS-COV-2); assay: Vero E6 cells plaque assay of SARS-COV-2 replication; format: cell-based

C/C=C/C=C/C/C=C\CCCCCCCCCc1cc(O)ccc1O [HQ17(3), 10′(Z), 13′(E), 15′(E)-Heptadecatrienyl hydroquinone]
toxicity in rats [1]: no toxicity was observed | replication of HL-60 cells (blood cancer HL-60 cells): the replication of blood cancer HL-60 cells was stopped | effect on peripheral white blood cells ([2]; 5 uM): no effect on peripheral white blood cells | toxicity on peripheral white blood cells ([2]; 50 uM): no toxicity on peripheral white blood cells was observed | virus inhibition rate (viral plaques) ([3]; 10 uM HQ17(3), stock in 0.1% DMSO, Vero E6 cells, one week): more than 60% | EC50 ([3]; Severe acute respiratory syndrome coronavirus 2, Vero C1008, 168 h, read-out: EC50, inhibition of SARS-COV-2 replication in cells by 50%): 8.5 ± 0.96 µM
